pIC50: −log10 of the molar value.
biological target: Acetylcholinesterase (Torpedo marmorata, UniProt P07692); test: Enzyme Assay; details: pH 4; 25 °C
Experimental: The inhibitory activity of the equilibrated mixtures was determined. The activity of AChE was monitored by following the linear change in absorbance at 412 nm over 30s at 25C.

Chain of Acetylcholinesterase (P07692 whole entry): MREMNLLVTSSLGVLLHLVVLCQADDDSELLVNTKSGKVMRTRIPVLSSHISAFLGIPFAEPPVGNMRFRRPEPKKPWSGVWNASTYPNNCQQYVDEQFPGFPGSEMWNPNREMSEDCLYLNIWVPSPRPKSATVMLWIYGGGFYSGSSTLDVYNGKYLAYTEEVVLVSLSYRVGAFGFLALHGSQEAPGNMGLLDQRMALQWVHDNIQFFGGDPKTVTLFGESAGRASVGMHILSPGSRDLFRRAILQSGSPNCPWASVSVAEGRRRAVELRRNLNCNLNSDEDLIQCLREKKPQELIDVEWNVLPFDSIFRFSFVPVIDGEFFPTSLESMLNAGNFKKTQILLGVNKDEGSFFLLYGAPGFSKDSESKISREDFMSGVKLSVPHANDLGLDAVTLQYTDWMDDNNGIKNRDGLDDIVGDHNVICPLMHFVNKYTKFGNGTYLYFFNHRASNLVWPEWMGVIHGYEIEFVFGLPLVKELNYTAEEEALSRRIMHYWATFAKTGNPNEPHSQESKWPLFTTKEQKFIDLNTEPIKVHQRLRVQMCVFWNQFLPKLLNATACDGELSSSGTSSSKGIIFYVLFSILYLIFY

Row | SMILES | pIC50
1 | c1cc[n+](CCCCCCCCCC[n+]2ccccc2)cc1 [1,10-di(1-pyridiniumyl)decane; diiodide] | 7.59
2 | c1cc[n+](CCCCCCCCCCCC[n+]2ccccc2)cc1 [1,12-Bis(pyridinium)dodecane] | 7.80
3 | C[N+](C)(C)CCCCCCCCCCCC[N+](C)(C)C [N1,N1,N1,N12,N12,N12-hexamethyldodecane-1,12-diaminium bromide] | 7.03
4 | O=C(C[n+]1ccccc1)N/N=C/c1ccc(/C=N/NC(=O)C[n+]2ccccc2)cc1 [Terephthalaldehyde, 4-I-4] | 8.64
